Like-named read-outs stand apart in the source and are kept apart here. Marks after values point to notes of the source that are not given here.
Key:
[1] = Long-term (chronic) toxicity study, mice; settings: multiple dose, observed up to 90 days after treatment
Description: (§1) Long-term (chronic) toxicity study: Mode of treatment and dilution by either water or normal saline were identical to acute toxicity study. Chronic toxicity study was made with four species of animals: mice, rat, rabbit and dog.
Mice. For experiment with these animals, 4 batches of mice were used per mode of treatment. Each batch contained 6 animals either male or female weighing 18-25 g. […] In all the cases, control group received water or normal saline in respective manner.
(§2) Total number of animals in each group including control and different modes of treatment: 6 (mice), 5 (rats) and 4 (rabbits). Each set of experiment was repeated 4 times for mice and rats and for rabbits 2 times respectively. […] In Table 3, αWeight of animals for mice and rats in gm and for rabbit in Kg.

[2] = rats
Method: as §1
Rats. For experiment with these animals, 4 batches of rats were used per mode of treatment. Each batch contained 5 rats either male or female weighing 75-80 g per animal. […] Then, the rats were injected for 3 cycles; one cycle consisted of injections for two consecutive days followed by a rest of 1 day.
as §2
Details are described in the Tables.

[3] = Long-term (chronic) toxicity study, rabbits; settings: rabbit, long-term treatment
Description: as §1
Rabbits. For experiments with rabbits, two groups were used per mode of treatment. Each group in each mode of treatment consists of 4 animals, either male or female.
However, each animal was placed in a separate cage.
as §2
We also measured the body weights of the animals. […] Besides, we also measured several marker enzymes and metabolites in the blood and sera of dog (see below).

[4] = Biochemical tests of blood/sera of rats after long-term treatment; format: in vivo, rat; settings: 1 week after long-term treatment
Teratogenicity study = format: in vivo, mice; settings: treatment (oral and intravenous) from conception for 3 weeks
Method: Teratogenicity: For this test, mating was performed between mice as mentioned above in the case of fertility studies. […] But, as soon as they conceived, as indicated by vaginal plug formation, the treatment (oral and intravenous) started and continued for 3 weeks in a similar fashion for chronic toxicity studies. […] These litters also grew up healthy with no signs of abnormality. Healthy litters were born again when mating was performed among these animals.

[5] = Pharmacokinetics, repeat oral dose study; format: in vivo; settings: mice; for V / k / half-life at 30 days: oral 100 mg/kg body wt./day; for half-life at 30 days: mouse, whole blood, po, 100 mg/kg, read-out: t½ (converted)
[6] = both, rat, in vivo, 6 weeks
EAC cells = assay: Increase in body weight of EAC cell-inoculated mice; format: in vivo
[7] = time after last dose Up to 48 h
[8] = oral 100 mg/kg/day, last dose day 30

CC(=O)C=O [methylglyoxal]
death and toxic effect (physical and behavioral) [1]: No death and toxic effect | local reaction to intravenous injections ([2]; intravenous, from 3rd week of the treatment): swelling appeared in the tail and adjoining regions | toxic effect on physical condition and behavioral pattern, death ([2]; multiple dose, observed up to 90 days after treatment): No toxic effect | general physical conditions and behavioral pattern vs control [3]: no abnormalities | Creatine kinase ([4]; Intravenous): 0.36 ± 0.04 units/ml | Creatine kinase-MB ([4]; Intravenous): 0.18 ± 0.01 units/ml | Hb ([4]; Intravenous): 10.2 ± 0.8 gm/dl | Serum Urea ([4]; Intravenous): 26.3 ± 2.1 mg/dL | Serum alanine transaminase ([4]; Intravenous): 28 ± 1.6 units/ml | Serum alkaline phosphatase ([4]; Intravenous): 41.6 ± 1.2 KA units | Serum aspartate transaminase ([4]; Intravenous): 125 ± 5 units/ml | Serum creatinine ([4]; Intravenous): 0.90 ± 0.02 mg/dL | Serum glucose ([4]; Intravenous): 102 ± 10 mg/dL | Creatine kinase ([4]; Oral): 0.37 ± 0.05 units/ml | Creatine kinase-MB ([4]; Oral): 0.16 ± 0.03 units/ml | Hb ([4]; Oral): 10.4 ± 0.3 gm/dl | Serum Urea ([4]; Oral): 24.3 ± 1.9 mg/dL | Serum alanine transaminase ([4]; Oral): 24 ± 2.5 units/ml | Serum alkaline phosphatase ([4]; Oral): 39.3 ± 1.6 KA units | Serum aspartate transaminase ([4]; Oral): 132 ± 3 units/ml | Serum creatinine ([4]; Oral): 0.82 ± 0.03 mg/dL | Serum glucose ([4]; Oral): 109 ± 6 mg/dL | Hb ([4]; Subcutaneous): 10.35 ± 0.35 gm/dl | Serum Urea ([4]; Subcutaneous): 23.5 ± 1.3 mg/dL | Serum alanine transaminase ([4]; Subcutaneous): 28 ± 2.8 units/ml | Serum alkaline phosphatase ([4]; Subcutaneous): 45.3 ± 1.8 KA units | Serum aspartate transaminase ([4]; Subcutaneous): 141 ± 7 units/ml | Serum creatinine ([4]; Subcutaneous): 0.85 ± 0.03 mg/dL | Serum glucose ([4]; Subcutaneous): 122 ± 3 mg/dL | outcome of pregnancy (teratogenicity) (Teratogenicity study): gave birth to healthy litters | V ([5]; time after last dose 48-120 h): 50.89 L/kg | k ([5]; time after last dose 48-120 h): 0.0231 h − 1 | V [5, 7]: 73.90 L/kg | k [5, 7]: 0.0017 h − 1 | day from which peak concentration was achieved [5, 8]: three | day on which the basal level was reached [5, 8]: ~35 days | half-life at 30 days ([5]; time after last dose 48-120 h): 30 h | half-life at 30 days [5, 7]: 408 h | healthy litters per female, on an average [6]: 5 | Percent increase in body weight (EAC cells; Table 8, MG 30 mg/kg/day, Day 15): 15.8 ± 1.3% | Percent increase in body weight (EAC cells; Table 8, MG 30 mg/kg/day, Day 20): 19.0 ± 1.6% | Percent increase in body weight (EAC cells; Table 8, MG 30 mg/kg/day, Day 25): 30.0 ± 2.9% | Percent increase in body weight (EAC cells; Table 8, MG 30 mg/kg/day, Day 30): 32.9 ± 3.0% | Percent increase in body weight (EAC cells; Table 8, MG 30 mg/kg/day, Day 35, 2 animals survived out of 6): 38.8 ± 3.0^b % | Percent increase in body weight (EAC cells; Table 8, MG 100 mg/kg/day, Day 15): 8.0 ± 0.7% | Percent increase in body weight (EAC cells; Table 8, MG 100 mg/kg/day, Day 20): 10.0 ± 1.2% | Percent increase in body weight (EAC cells; Table 8, MG 100 mg/kg/day, Day 25): 11.0 ± 1.0% | Percent increase in body weight (EAC cells; Table 8, MG 100 mg/kg/day, Day 30): 11.2 ± 0.9% | Percent increase in body weight (EAC cells; Table 8, MG 100 mg/kg/day, Day 35): 11.2 ± 1.1% | Percent increase in body weight (EAC cells; Table 10, MG 30 mg/kg/day ip, Day 20): 19.0 ± 1.6% | Percent increase in body weight (EAC cells; Table 10, MG 30 mg/kg/day ip, Day 30): 32.9 ± 3.0% | Percent increase in body weight (EAC cells; Table 10, MG 100 mg/kg body weight/day ip, Day 30): 11.2 ± 0.9% | Percent increase in body weight (EAC cells; Table 10, MG 100 mg/kg body weight/day ip, Day 35): 11.2 ± 1.1%
